Measurements published in paper PMC5962959 (ChemMedChem, 2017).
Values belong to the molecule of their own block, whether it stands above or below them.

What was measured:
full-length human TSSK2 = molecular target: T1, full-length human TSSK2 (Homo sapiens, UniProt Q96PF2); assay: Mobility shift assay: TSSK2 phosphorylation of 5-FAM-GS peptide; format: biochemical; settings: for TSSK2 inhibitor confirmed in concentration-response experiments after HTS: HTS at 10 μM, cherry-picked compounds from DMSO stocks; for fold reduction in TSSK2 activity: relative to compound 18
T1 sequence (Q96PF2 1-358): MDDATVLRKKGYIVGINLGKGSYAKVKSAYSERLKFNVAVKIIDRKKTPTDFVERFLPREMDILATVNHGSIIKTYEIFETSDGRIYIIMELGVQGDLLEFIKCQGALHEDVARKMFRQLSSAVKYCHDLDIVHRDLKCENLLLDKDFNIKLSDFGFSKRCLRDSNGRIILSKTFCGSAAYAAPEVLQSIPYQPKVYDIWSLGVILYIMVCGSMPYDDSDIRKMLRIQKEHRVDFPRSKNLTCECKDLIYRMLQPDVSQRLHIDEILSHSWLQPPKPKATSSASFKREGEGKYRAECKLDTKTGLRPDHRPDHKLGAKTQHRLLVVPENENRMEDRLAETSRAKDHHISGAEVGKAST

[1] = test system: kinases (PKIS profiling panel); settings: at 100 nM; ref profiling data provided by GSK supporting the PKIS collections; cited from earlier work
[2] = test system: insulin-like growth factor 1 receptor (IGF-1R); assay: Reported IGF-1R inhibition; format: biochemical
GRK1 = assay: Reported GRK inhibition; format: biochemical; settings: GRK data ref 10d
[3] = molecular target: focal adhesion kinase (FAK); settings: patent literature, Supplementary Table 2; ref 13p; cited from earlier work
[4] = test system: insulin-like growth factor 1 receptor (IGF-1R); settings: cited from earlier work
TSSK1 = molecular target: T2, TSSK1 (Homo sapiens, UniProt Q9BXA7); assay: TSSK family member inhibition, TSSK1; format: biochemical
T2 sequence (Q9BXA7 1-367): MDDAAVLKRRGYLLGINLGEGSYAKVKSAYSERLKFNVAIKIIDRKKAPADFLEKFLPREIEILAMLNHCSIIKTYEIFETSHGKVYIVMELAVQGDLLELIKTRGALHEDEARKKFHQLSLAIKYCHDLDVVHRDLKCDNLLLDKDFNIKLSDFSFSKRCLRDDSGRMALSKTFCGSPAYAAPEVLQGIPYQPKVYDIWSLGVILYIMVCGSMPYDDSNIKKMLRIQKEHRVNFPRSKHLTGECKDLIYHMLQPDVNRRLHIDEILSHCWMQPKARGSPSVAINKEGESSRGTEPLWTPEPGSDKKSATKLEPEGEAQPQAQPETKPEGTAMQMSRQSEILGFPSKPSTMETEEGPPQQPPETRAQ

TSSK3 = assay: TSSK family member inhibition, TSSK3; format: biochemical
TSSK6 = TSSK6 (Homo sapiens, UniProt Q9BXA6); assay: TSSK family member inhibition, TSSK6; format: biochemical
TSSK6, sequence (Q9BXA6 whole entry): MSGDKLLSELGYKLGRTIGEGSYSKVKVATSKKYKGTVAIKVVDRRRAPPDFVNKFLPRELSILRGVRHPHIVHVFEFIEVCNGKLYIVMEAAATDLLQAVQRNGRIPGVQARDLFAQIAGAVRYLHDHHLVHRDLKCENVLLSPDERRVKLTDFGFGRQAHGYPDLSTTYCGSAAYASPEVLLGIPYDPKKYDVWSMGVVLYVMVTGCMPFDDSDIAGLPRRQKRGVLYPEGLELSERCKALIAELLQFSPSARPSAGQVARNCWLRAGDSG

369 wild-type kinases = assay: Kinome profiling at Reaction Biology Corp.; format: biochemical; settings: 100 nM
FLT3 = settings: ref 13b; cited from earlier work
[5] = test system: anaplastic lymphoma kinase (ALK); settings: cited from earlier work
Tie2 = settings: ref 13b; cited from earlier work
LRRK2 = settings: ref 13c; cited from earlier work
LTK = settings: read-out: LTK IC50; Supplementary Table 2; ref 13a; cited from earlier work
CLK2 = settings: read-out: CLK2 IC50; Supplementary Table 2; ref 13a; cited from earlier work
insulin receptor = settings: read-out: insulin receptor IC50; Supplementary Table 2; ref 13a; cited from earlier work

Structure (SMILES): O=c1[nH]c2ccc(Cl)cc2c(N[C@@H]2CN3CCC2CC3)c1-c1nc2ccccc2[nH]1 [CHIR-124]
- TSSK2 inhibitor confirmed in concentration-response experiments after HTS (full-length human TSSK2): active

- fold more potent inhibitors of IGF-1 than of TSSK2 [2]: ≥ 100 fold
Structure (SMILES): COc1cc2c(cc1Nc1nc(Nc3ccsc3C(N)=O)c3cc[nH]c3n1)N(C(=O)CN(C)C)CCC2(C)C [Compound 10]
- number of kinases inhibited by > 50% [1]: 15 – 20
- fold selective for TSSK2 over GRK1 (GRK1): > 5 fold

Structure (SMILES): CNS(=O)(=O)c1ccccc1Nc1nc(Nc2ccc(N3CCN(C)CC3)cc2OC)ncc1Br [Compound 17]
- FAK IC50 [3]: low nanomolar
- potency for inhibiting IGF-1R ([4]; compared with FAK, ref 13p): substantially less potent

Structure (SMILES): CNS(=O)(=O)c1ccccc1Nc1nc(Nc2ccc(N3CCN(C)CC3)cc2OC)ncc1Cl [Compound 18]
- FAK IC50 [3]: low nanomolar

- fold more potent at inhibiting TSSK1 than TSSK2 (TSSK1): > 40 fold
- rank order potency at TSSK isoforms (TSSK1): TSSK1 > TSSK2 > TSSK3 > TSSK6
- activity at TSSK6 (TSSK6): almost inactive
- fold selective for TSSK1 over TSSK6 (TSSK6): ~100,000 fold
- fold reduction in TSSK2 activity (full-length human TSSK2): < 2 fold
Structure (SMILES): CNS(=O)(=O)c1ccccc1Nc1nc(Nc2ccc(C3CCN(C)CC3)cc2OC)ncc1Cl [Compound 19, 2-[[5-chloro-2-[2-methoxy-4-(1-methylpiperidin-4-yl)anilino]pyrimidin-4-yl]amino]-N-methylbenzenesulfonamide]
- fold more potent at TSSK1 than TSSK3 (TSSK3): 800 fold
- number of 369 kinases inhibited to a greater extent than TSSK2 (369 wild-type kinases): 62

Structure (SMILES): COc1cc(N2CCC(N3CCN(C)CC3)CC2)ccc1Nc1ncc(Cl)c(Nc2ccccc2S(=O)(=O)C(C)C)n1 [Compound 22]
- activity at FLT3 (FLT3): low nanomolar
- activity at ALK [5]: low nanomolar
- activity at Tie2 (Tie2): low nanomolar
- activity at LRRK2 (LRRK2): low nanomolar
- fold reduction in TSSK2 activity (full-length human TSSK2): ~ 2 fold

Structure (SMILES): COc1cc(N2CCC(O)CC2)ccc1Nc1nc(Nc2ccccc2S(=O)(=O)C(C)C)c2[nH]cnc2n1 [Compound 35]
- IC50 (LTK): 20 to 40 nM
- IC50 ([4]; read-out: IGF-1R IC50, Supplementary Table 2, ref 13a): 20 to 40 nM
- IC50 (CLK2): 20 to 40 nM
- IC50 (insulin receptor): 20 to 40 nM

- TSSK2 inhibitor confirmed in concentration-response experiments after HTS (full-length human TSSK2): active
Structure (SMILES): CCn1c(-c2nonc2N)nc2c(C#CC(C)(C)O)nc(O[C@@H](CN)c3ccccc3)cc21 [GSK1007102B]

- TSSK2 inhibitor confirmed in concentration-response experiments after HTS (full-length human TSSK2): active
Structure (SMILES): CC(=O)NCC(=O)N1[C@@H]2CC[C@H]1c1ccc(Nc3ncc(C(F)(F)F)c(NC4CCC4)n3)cc12 [PF-03814735]

Structure (SMILES): COc1ccc([C@@H]2CC(=O)c3c(O)cc(O[C@@H]4O[C@H](CO[C@@H]5O[C@@H](C)[C@H](O)[C@@H](O)[C@H]5O)[C@@H](O)[C@H](O)[C@H]4O)cc3O2)cc1O [hesperidin]
- TSSK2 inhibitor confirmed in concentration-response experiments after HTS (full-length human TSSK2): active
